Read-outs that look alike come from different tables or passages of the source.
Key:
[1] = system: femur fractures; conditions: four weeks post-fracture
Text: X-rays are taken at two-week intervals to the day of euthanasia. After euthanasia x-rays are taken as well. To take x-rays, animals will be given a half dose of anesthesia. All groups will be monitored closely for four days after surgery for infection, and the ability to ambulate freely.

[2] = system: femur fractures
Text: The fractured femora were resected at seven and ten days post-fracture, decalcified, dehydrated, embedded in paraffin, and sectioned using standard histological techniques. Sections were stained with Masson's Trichrome (Accustain™ Trichrome Staining kit, Sigma Diagnostics, St. Louis, MO) for histological observation using an Olympus BH2-RFCA microscope (Olympus Optical Co., Ltd., Shinjuku-ku, Tokyo, Japan). Digital images were collected using a Nikon DXM1200F digital camera (Nikon, Tokyo, Japan). Cartilage, new bone, and total callus area were measured from the digital images using Image-Pro Plus software (version 5, Media Cybernetics, Inc., Silver Spring, MD). Total cartilage and new bone area were normalized to total callus area and expressed as the percent area. Two independent reviewers were used to minimize inconsistencies.

[3] = system: femur fractures; design: Percent Effective Shear Modulus / Percent Effective Shear Stress: scale not given: direction of the effect not stated beside the values; conditions: no carrier, 4 weeks post-fracture; for Percent Effective Shear Modulus / Percent Effective Shear Stress / Percent Maximum Torque to Failure / Percent maximum torsional rigidity: normalized to intact femur
Experimental: Torsional testing was conducted at 4 weeks post-fracture, using a servohydraulics machine (MTS Sys. Corp., Eden Prairie, MN) with a 20 Nm reaction torque cell (Interface, Scottsdale, AZ). Femurs were tested to failure at a rate of 2.0 deg/sec at four weeks post-fracture. […] In order to compare the biomechanical parameters between different groups, the data was normalized by dividing each fractured femur value by its corresponding intact, contralateral femur value. Torsional mechanical testing is limited by differences in gauge length during bone potting in Field's metal. Placement and dimension of fracture gap can contribute to standard deviations.

[4] = system: posterolateral lumbar fusion (L4-L5); assay: Spinal fusion: radiographic analysis; conditions: n=10, eight weeks
[5] = system: posterolateral lumbar fusion (L4-L5); assay: Spinal fusion: MicroCT bone volume; conditions: L4/L5 transverse processes and fusion mass, eight weeks
[6] = system: posterolateral lumbar fusion (L4-L5); assay: Spinal fusion: manual palpation; conditions: n=10, eight weeks
[7] = manganese chloride 0.125 mg/kg, 7 days post fracture
[8] = manganese chloride 0.125 mg/kg, 10 days post fracture
[9] = manganese chloride 0.3 mg/kg, 7 days post fracture
[10] = manganese chloride 0.3 mg/kg, 10 days post fracture
[11] = manganese chloride 0.87 mg/kg, 7 days post fracture
[12] = manganese chloride 0.87 mg/kg, 10 days post fracture
[13] = Zn-high pellet 1.0 mg/kg, listed as zinc
[14] = Zn-low pellet 0.5 mg/kg, listed as zinc

SMILES: [Cl][Mn][Cl] [MnCl2, manganese chloride]
- mineralized tissue on radiographs ([1]; MnCl2 0.25 mg/kg): increased mineralized tissue than saline controls
- union on radiographs ([1]; MnCl2 group, saline control had no evidence of union): union at the subperiosteal bony area and at the callus
- % Cartilage [2, 7]: 4.843 ± 2.3 n=6%
- % new bone [2, 7]: 15.518 ± 2.69 n=6%
- % Cartilage [2, 8]: 5.9 ± 4.47 n=5%
- % new bone [2, 8]: 14.69 ± 11.74 n=5%
- % Cartilage [2, 9]: 2.859 ± 1.09 n=7%
- % new bone [2, 9]: 15.604 ± 2.39 n=7%
- % Cartilage [2, 10]: 11.051 ± 3.05 n=9%
- % new bone [2, 10]: 18.866 ± 2.28^∗,# n=9%
- % Cartilage [2, 11]: 4.355 ± 3.99 n=3%
- % new bone [2, 11]: 16.492 ± 3.59 n=3%
- % Cartilage [2, 12]: 8.227 ± 2.24 n=3%
- % new bone [2, 12]: 15.948 ± 3.04 n=3%
- Effective Shear Modulus ([3]; MnCl2 0.083 mg/kg local): 8.7×10^2 ± 4.9×10^2 MPa
- Effective Shear Stress ([3]; MnCl2 0.083 mg/kg local): 30 ± 8 MPa
- Maximum Torque to Failure ([3]; MnCl2 0.083 mg/kg local): 272 ± 39 Nmm
- Maximum Torsional Rigidity ([3]; MnCl2 0.083 mg/kg local): 2.6×10^4 ± 1.2×10^4 Nmm^2/rad
- Percent Effective Shear Modulus ([3]; MnCl2 0.083 mg/kg local): 8 ± 7%
- Percent Effective Shear Stress ([3]; MnCl2 0.083 mg/kg local): 8 ± 4%
- Percent Maximum Torque to Failure ([3]; MnCl2 0.083 mg/kg local): 42 ± 5%
- Percent maximum torsional rigidity ([3]; MnCl2 0.083 mg/kg local): 56 ± 30%
- Effective Shear Modulus ([3]; MnCl2 0.125 mg/kg local): 6.4×10^2 ± 8.8×10^1 MPa
- Effective Shear Stress ([3]; MnCl2 0.125 mg/kg local): 21 ± 6 MPa
- Maximum Torque to Failure ([3]; MnCl2 0.125 mg/kg local): 351 ± 59^∗ Nmm
- Maximum Torsional Rigidity ([3]; MnCl2 0.125 mg/kg local): 4.2×10^4 ± 1.1×10^4 Nmm^2/rad
- Percent Effective Shear Modulus ([3]; MnCl2 0.125 mg/kg local): 16 ± 11%
- Percent Effective Shear Stress ([3]; MnCl2 0.125 mg/kg local): 14 ± 5%
- Percent Maximum Torque to Failure ([3]; MnCl2 0.125 mg/kg local): 54 ± 5%
- Percent maximum torsional rigidity ([3]; MnCl2 0.125 mg/kg local): 103 ± 40^∗ Percent
- Effective Shear Modulus ([3]; MnCl2 0.25 mg/kg local): 8.1×10^2 ± 5.0×10^2 MPa
- Effective Shear Stress ([3]; MnCl2 0.25 mg/kg local): 32 ± 11 MPa
- Maximum Torque to Failure ([3]; MnCl2 0.25 mg/kg local): 344 ± 84^∗ Nmm
- Maximum Torsional Rigidity ([3]; MnCl2 0.25 mg/kg local): 3.4×10^4 ± 1.6×10^4 Nmm^2/rad
- Percent Effective Shear Modulus ([3]; MnCl2 0.25 mg/kg local): 14 ± 9%
- Percent Effective Shear Stress ([3]; MnCl2 0.25 mg/kg local): 16 ± 6%
- Percent Maximum Torque to Failure ([3]; MnCl2 0.25 mg/kg local): 55 ± 19%
- Percent maximum torsional rigidity ([3]; MnCl2 0.25 mg/kg local): 80 ± 34^∗ Percent
- Effective Shear Modulus ([3]; MnCl2 0.30 mg/kg local): 7.6×10^2 ± 9.2×10^2 MPa
- Effective Shear Stress ([3]; MnCl2 0.30 mg/kg local): 27 ± 23 MPa
- Maximum Torque to Failure ([3]; MnCl2 0.30 mg/kg local): 323 ± 135^∗ Nmm
- Maximum Torsional Rigidity ([3]; MnCl2 0.30 mg/kg local): 3.0×10^4 ± 2.6×10^4 Nmm^2/rad
- Percent Effective Shear Modulus ([3]; MnCl2 0.30 mg/kg local): 10 ± 12%
- Percent Effective Shear Stress ([3]; MnCl2 0.30 mg/kg local): 16 ± 12%
- Percent Maximum Torque to Failure ([3]; MnCl2 0.30 mg/kg local): 50 ± 22%
- Percent maximum torsional rigidity ([3]; MnCl2 0.30 mg/kg local): 50 ± 37%
- Effective Shear Modulus ([3]; MnCl2 0.50 mg/kg local): 6.2×10^2 ± 3.5×10^2 MPa
- Effective Shear Stress ([3]; MnCl2 0.50 mg/kg local): 19 ± 9 MPa
- Maximum Torque to Failure ([3]; MnCl2 0.50 mg/kg local): 230 ± 83 Nmm
- Maximum Torsional Rigidity ([3]; MnCl2 0.50 mg/kg local): 2.9×10^4 ± 1.2×10^4 Nmm^2/rad
- Percent Effective Shear Modulus ([3]; MnCl2 0.50 mg/kg local): 17 ± 13%
- Percent Effective Shear Stress ([3]; MnCl2 0.50 mg/kg local): 14 ± 7%
- Percent Maximum Torque to Failure ([3]; MnCl2 0.50 mg/kg local): 38 ± 15%
- Percent maximum torsional rigidity ([3]; MnCl2 0.50 mg/kg local): 61 ± 16%

SMILES: [Zn] [Zn]
- Radiographs: number graded A = solid fusion mass bilaterally ([4]; Zn-high pellet 1.0 mg/kg): 7
- Radiographs: number graded B = unilateral fusion mass ([4]; Zn-high pellet 1.0 mg/kg): 3
- Radiographs: number graded C = small fusion mass bilaterally ([4]; Zn-high pellet 1.0 mg/kg): 0
- Radiographs: number graded D = Graft resorption ([4]; Zn-high pellet 1.0 mg/kg): 0
- Radiographs: number graded A = solid fusion mass bilaterally [4, 13]: 7/10
- Radiographs: number graded B = unilateral fusion mass [4, 13]: 3/10
- Radiographs: number graded C = small fusion mass bilaterally [4, 13]: 0/10
- Radiographs: number graded D = Graft resorption [4, 13]: 0/10
- Radiographs: number graded A = solid fusion mass bilaterally ([4]; Zn-low pellet 0.5 mg/kg): 7
- Radiographs: number graded B = unilateral fusion mass ([4]; Zn-low pellet 0.5 mg/kg): 1
- Radiographs: number graded C = small fusion mass bilaterally ([4]; Zn-low pellet 0.5 mg/kg): 2
- Radiographs: number graded D = Graft resorption ([4]; Zn-low pellet 0.5 mg/kg): 0
- Radiographs: number graded A = solid fusion mass bilaterally [4, 14]: 7/10
- Radiographs: number graded B = unilateral fusion mass [4, 14]: 1/10
- Radiographs: number graded C = small fusion mass bilaterally [4, 14]: 2/10
- Radiographs: number graded D = Graft resorption [4, 14]: 0/10
- Mean Bone Volume ([5]; Zn high dose pellet (1.0 mg/kg)): 172.7 mm^3
- Mean Bone Volume ([5]; Zn low dose pellet (0.5 mg/kg)): 172.9 mm^3
- Manual palpation: number graded A = fused ([6]; Zn-high pellet 1.0 mg/kg): 4
- Manual palpation: number graded B = partially fused ([6]; Zn-high pellet 1.0 mg/kg): 1
- Manual palpation: number graded C = not fused ([6]; Zn-high pellet 1.0 mg/kg): 5
- Manual palpation: number graded A = fused [6, 13]: 4/10
- Manual palpation: number graded B = partially fused [6, 13]: 1/10
- Manual palpation: number graded C = not fused [6, 13]: 5/10
- Manual palpation: number graded A = fused ([6]; Zn-low pellet 0.5 mg/kg): 3
- Manual palpation: number graded B = partially fused ([6]; Zn-low pellet 0.5 mg/kg): 4
- Manual palpation: number graded C = not fused ([6]; Zn-low pellet 0.5 mg/kg): 3
- Manual palpation: number graded A = fused [6, 14]: 3/10
- Manual palpation: number graded B = partially fused [6, 14]: 4/10
- Manual palpation: number graded C = not fused [6, 14]: 3/10

From EP2785358B1, “INSULIN-MIMETICS AS THERAPEUTIC ADJUNCTS FOR BONE REGENERATION” (priority 2011, dated 2013)
